Legend:
Format in all cases: functional, cell-based
[1] = test system: KB; test: Cytotoxicity against human KB cells assessed as inhibition of cell growth after 3 days by MTT assay; conditions: 72 h
[2] = test system: HepG2; test: Cytotoxicity against human HepG2 cells assessed as inhibition of cell growth after 3 days by MTT assay; conditions: HepG2, 72 h
[3] = Cytotoxicity against human Lu cells assessed as inhibition of cell growth after 3 days by MTT assay; conditions: 72 h
[4] = test system: MCF7; test: Cytotoxicity against human MCF7 cells assessed as inhibition of cell growth after 3 days by MTT assay; conditions: MCF7, 72 h

Row | Structure (SMILES) | IC50 [1] [nM] | IC50 [2] [nM] | IC50 [3] [nM] | IC50 [4] [nM]
1 | COc1cccc(/C=C(\NC(C)=O)C(=O)N[C@H](C(=O)N[C@H](/C=C(\C)C(=O)O)C(C)C)C(C)(C)C)c1 | > 269 | > 269 | > 269 | > 269
2 | Cc1c2ccncc2c(C)c2c1[nH]c1ccccc12 [ELLIPTECINE] | 1.26 | 1.26 | 1.82 | 2.15
3 | CCOC(=O)/C(C)=C/[C@H](C(C)C)N(C)C(=O)[C@@H](NC(=O)/C(=C/c1ccc(Br)cc1)NC(C)=O)C(C)(C)C | 49 | > 269 | > 269 | > 269
4 | CCOC(=O)/C(C)=C/[C@@H](NC(=O)[C@@H](NC(=O)/C(=C/c1cccc(OC)c1)NC(C)=O)C(C)(C)C)C(C)C | 77.4 | 47.7 | 228 | 62
5 | CCOC(=O)/C(C)=C/[C@H](C(C)C)N(C)C(=O)[C@@H](NC(=O)/C(=C/c1ccoc1)NC(C)=O)C(C)(C)C | 24.1 | 16.3 | 158 | 113
6 | COc1ccc(/C=C(\NC(C)=O)C(=O)N[C@H](C(=O)N[C@H](/C=C(\C)C(=O)O)C(C)C)C(C)(C)C)cc1 | > 269 | > 269 | > 269 | > 269
7 | CC(=O)N/C(=C\c1ccc2ccccc2c1)C(=O)N[C@H](C(=O)N(C)[C@H](/C=C(\C)C(=O)O)C(C)C)C(C)(C)C | 69.7 | 13 | > 269 | > 269
8 | COc1ccc(/C=C(\NC(C)=O)C(=O)N[C@H](C(=O)N(C)[C@H](/C=C(\C)C(=O)O)C(C)C)C(C)(C)C)cc1 | 15.8 | 63.8 | > 269 | > 269
9 | CC(=O)N/C(=C\c1ccsc1)C(=O)N[C@H](C(=O)N[C@H](/C=C(\C)C(=O)O)C(C)C)C(C)(C)C | > 269 | > 269 | > 269 | > 269
10 | CCOC(=O)/C(C)=C/[C@H](C(C)C)N(C)C(=O)[C@@H](NC(=O)/C(=C/c1ccco1)NC(C)=O)C(C)(C)C | 3.5 | 31.4 | 231 | 178
11 | CC(=O)N/C(=C\c1ccc(Br)cc1)C(=O)N[C@H](C(=O)N[C@H](/C=C(\C)C(=O)O)C(C)C)C(C)(C)C | > 269 | > 269 | > 269 | > 269
12 | CC(=O)O[C@H]1C(=O)[C@@]2(C)[C@H]([C@H](OC(=O)c3ccccc3)[C@]3(O)C[C@H](OC(=O)[C@H](O)[C@@H](NC(=O)c4ccccc4)c4ccccc4)C(C)=C1C3(C)C)[C@]1(OC(C)=O)CO[C@@H]1C[C@@H]2O [PACLITAXEL] | 3.9 | 0.19 |  | 
13 | CCOC(=O)/C(C)=C/[C@H](C(C)C)N(C)C(=O)[C@@H](NC(=O)/C(=C/c1cccc(OC)c1)NC(C)=O)C(C)(C)C | > 269 | > 269 | > 269 | > 269
14 | CCOC(=O)/C(C)=C/[C@@H](NC(=O)[C@@H](NC(=O)/C(=C/c1ccc(Br)cc1)NC(C)=O)C(C)(C)C)C(C)C | > 269 | > 269 | > 269 | > 269
15 | CC(=O)N/C(=C\c1ccco1)C(=O)N[C@H](C(=O)N(C)[C@H](/C=C(\C)C(=O)O)C(C)C)C(C)(C)C | 188 | > 269 | > 269 | > 269
16 | CCOC(=O)/C(C)=C/[C@@H](NC(=O)[C@@H](NC(=O)/C(=C/c1ccsc1)NC(C)=O)C(C)(C)C)C(C)C | 107 | 57.6 | > 269 | 203

Row | Structure (SMILES) | IC50 [1] [nM] | IC50 [2] [nM] | IC50 [3] [nM] | IC50 [4] [nM]
17 | CCOC(=O)/C(C)=C/[C@@H](NC(=O)[C@@H](NC(=O)/C(=C/c1ccco1)NC(C)=O)C(C)(C)C)C(C)C | 160 | 214 | > 269 | > 269
18 | CCOC(=O)/C(C)=C/[C@H](C(C)C)N(C)C(=O)[C@@H](NC(=O)/C(=C/c1ccc(OC)cc1)NC(C)=O)C(C)(C)C | 3.7 | 3.7 | > 269 | 215
19 | COc1cccc(/C=C(\NC(C)=O)C(=O)N[C@H](C(=O)N(C)[C@H](/C=C(\C)C(=O)O)C(C)C)C(C)(C)C)c1 | > 269 | > 269 | > 269 | > 269
20 | CCOC(=O)/C(C)=C/[C@@H](NC(=O)[C@@H](NC(=O)/C(=C/c1ccc2ccccc2c1)NC(C)=O)C(C)(C)C)C(C)C | 30.8 | 39.7 | > 269 | 42.3
21 | CCOC(=O)/C(C)=C/[C@@H](NC(=O)[C@@H](NC(=O)/C(=C/c1ccc(OC)cc1)NC(C)=O)C(C)(C)C)C(C)C | > 269 | > 269 | > 269 | > 269
22 | CC(=O)N/C(=C\c1ccco1)C(=O)N[C@H](C(=O)N[C@H](/C=C(\C)C(=O)O)C(C)C)C(C)(C)C | 8.2 | 17.8 | > 269 | > 269
23 | CCOC(=O)/C(C)=C/[C@@H](NC(=O)[C@@H](NC(=O)/C(=C/c1ccoc1)NC(C)=O)C(C)(C)C)C(C)C | 86.2 | 67.3 | > 269 | > 269
24 | CC(=O)N/C(=C\c1ccsc1)C(=O)N[C@H](C(=O)N(C)[C@H](/C=C(\C)C(=O)O)C(C)C)C(C)(C)C | 234 | 63.2 | > 269 | > 269
25 | CC(=O)N/C(=C\c1ccc2ccccc2c1)C(=O)N[C@H](C(=O)N[C@H](/C=C(\C)C(=O)O)C(C)C)C(C)(C)C | 63 | 33.4 | > 269 | > 269
26 | CCOC(=O)/C(C)=C/[C@@H](NC(=O)[C@@H](NC(=O)/C(=C/c1cccc(Br)c1)NC(C)=O)C(C)(C)C)C(C)C | > 269 | > 269 | > 269 | > 269
27 | CC(=O)N/C(=C\c1ccoc1)C(=O)N[C@H](C(=O)N(C)[C@H](/C=C(\C)C(=O)O)C(C)C)C(C)(C)C | > 269 | 149 | > 269 | > 269
28 | CC(=O)N/C(=C\c1ccc(Br)cc1)C(=O)N[C@H](C(=O)N(C)[C@H](/C=C(\C)C(=O)O)C(C)C)C(C)(C)C | > 269 | > 269 | > 269 | > 269
29 | CC(=O)N/C(=C\c1cccc(Br)c1)C(=O)N[C@H](C(=O)N[C@H](/C=C(\C)C(=O)O)C(C)C)C(C)(C)C | > 269 | > 269 | > 269 | > 269
30 | CC(=O)N/C(=C\c1ccoc1)C(=O)N[C@H](C(=O)N[C@H](/C=C(\C)C(=O)O)C(C)C)C(C)(C)C | 155 | > 269 | > 269 | > 269
31 | CCOC(=O)/C(C)=C/[C@H](C(C)C)N(C)C(=O)[C@@H](NC(=O)/C(=C/c1ccc2ccccc2c1)NC(C)=O)C(C)(C)C | 23 | 23.1 | > 269 | 67.9
32 | CCOC(=O)/C(C)=C/[C@H](C(C)C)N(C)C(=O)[C@@H](NC(=O)/C(=C/c1ccsc1)NC(C)=O)C(C)(C)C | 202 | 15 | > 269 | > 269

— ChEMBL document CHEMBL3259736, “Synthesis of new simplified hemiasterlin derivatives with α,β-unsaturated carbonyl moiety” (Bioorg Med Chem Lett, 2014)
